PubChem BioAssay (NCI)
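Each compound was tested at five concentrations against cells in 96-well plates for 48 hours. TGI marks complete inhibition of growth.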

Legend:
Assay in all cases: inhibition of tumour cell growth, NCI panel, 48 h
[1] = test system: 786-0 renal
[2] = test system: A498 renal
[3] = test system: A549 NSCLC
[4] = test system: ACHN renal
[5] = test system: BT-549 breast
[6] = test system: CAKI-1 renal
[7] = test system: CCRF-CEM leukemia
[8] = test system: COLO 205 colon
[9] = test system: DU-145 prostate
[10] = test system: EKVX NSCLC
[11] = test system: HCC-2998 colon
[12] = test system: HCT-116 colon
[13] = test system: HCT-15 colon
[14] = test system: HL-60(TB) leukemia
[15] = test system: HOP-62 NSCLC
[16] = test system: HOP-92 NSCLC
[17] = test system: HS 578T breast
[18] = test system: HT29 colon
[19] = test system: IGROV1 ovarian
[20] = test system: K-562 leukemia
[21] = test system: KM12 colon
[22] = test system: LOX IMVI melanoma
[23] = test system: M14 melanoma
[24] = test system: MALME-3M melanoma
[25] = test system: MCF7 breast
[26] = test system: MDA-MB-231 breast
[27] = test system: MDA-MB-435
[28] = test system: MDA-N
[29] = test system: MOLT-4 leukemia
[30] = test system: NCI-H226 lung
[31] = test system: NCI-H23 lung
[32] = test system: NCI-H460 lung
[33] = test system: NCI-H522 lung
[34] = test system: NCI/ADR-RES ovarian
[35] = test system: OVCAR-3 ovarian
[36] = test system: OVCAR-4 ovarian
[37] = test system: OVCAR-5 ovarian
[38] = test system: OVCAR-8 ovarian
[39] = test system: PC-3 prostate
[40] = test system: RPMI-8226 leukemia
[41] = test system: RXF 393 renal
[42] = test system: SF-268 CNS
[43] = test system: SF-295 CNS
[44] = test system: SF-539 CNS
[45] = test system: SK-MEL-2 melanoma
[46] = test system: SK-MEL-28 melanoma
[47] = test system: SK-MEL-5 melanoma
[48] = test system: SK-OV-3 ovarian
[49] = test system: SN12C renal
[50] = test system: SNB-19 CNS
[51] = test system: SNB-75 CNS
[52] = test system: SR leukemia
[53] = test system: SW-620 colon
[54] = test system: T-47D breast
[55] = test system: TK-10 renal
[56] = test system: U251 CNS
[57] = test system: UACC-257 melanoma
[58] = test system: UACC-62 melanoma
[59] = test system: UO-31 renal

Question: `O=c1/c(=C/c2ccc([N+](=O)[O-])o2)sc2n1[C@@H](c1ccc3c(c1)OCO3)C=C(c1cc(F)c(Cl)cc1Cl)N=2` was tested. Which TGI [1] did it give?
Answer: 42.1 µM

Question: And the TGI [2]?
Answer: > 100 µM

Question: And the TGI [3]?
Answer: > 100 µM

Question: What about the TGI [4] of the same compound?
Answer: 33.2 µM

Question: What about the TGI [5] of the same compound?
Answer: 35.1 µM

Question: And the TGI [6]?
Answer: 33.6 µM

Question: What about the TGI [7] of the same compound?
Answer: 10.5 µM

Question: And the TGI [8]?
Answer: 71.4 µM

Question: And the TGI [9]?
Answer: 79.8 µM

Question: What about the TGI [10] of the same compound?
Answer: 32.7 µM

Question: What about the TGI [11] of the same compound?
Answer: 28.7 µM

Question: What about the TGI [12] of the same compound?
Answer: 28 µM

Question: What about the TGI [13] of the same compound?
Answer: 64.9 µM

Question: What about the TGI [14] of the same compound?
Answer: 45.5 µM

Question: And the TGI [15]?
Answer: 58.9 µM

Question: And the TGI [16]?
Answer: 26.6 µM

Question: What about the TGI [17] of the same compound?
Answer: > 100 µM

Question: What about the TGI [18] of the same compound?
Answer: 46 µM

Question: And the TGI [19]?
Answer: 33.4 µM

Question: What about the TGI [20] of the same compound?
Answer: > 100 µM

Question: And the TGI [21]?
Answer: 38.4 µM

Question: What about the TGI [22] of the same compound?
Answer: 42.9 µM

Question: And the TGI [23]?
Answer: 31.8 µM

Question: What about the TGI [24] of the same compound?
Answer: 40.5 µM

Question: What about the TGI [25] of the same compound?
Answer: 32.4 µM

Question: What about the TGI [26] of the same compound?
Answer: 50.4 µM

Question: What about the TGI [27] of the same compound?
Answer: 35.3 µM

Question: And the TGI [28]?
Answer: 43.3 µM

Question: What about the TGI [29] of the same compound?
Answer: > 100 µM

Question: And the TGI [30]?
Answer: > 100 µM

Question: And the TGI [31]?
Answer: 46.8 µM

Question: And the TGI [32]?
Answer: 49.8 µM

Question: What about the TGI [33] of the same compound?
Answer: 65.6 µM

Question: What about the TGI [34] of the same compound?
Answer: > 100 µM

Question: And the TGI [35]?
Answer: 35.3 µM

Question: And the TGI [36]?
Answer: 32.6 µM

Question: What about the TGI [37] of the same compound?
Answer: 43.8 µM

Question: What about the TGI [38] of the same compound?
Answer: 56.4 µM

Question: What about the TGI [39] of the same compound?
Answer: > 100 µM

Question: What about the TGI [40] of the same compound?
Answer: > 100 µM

Question: What about the TGI [41] of the same compound?
Answer: 43.2 µM

Question: What about the TGI [42] of the same compound?
Answer: > 100 µM

Question: What about the TGI [43] of the same compound?
Answer: > 100 µM

Question: What about the TGI [44] of the same compound?
Answer: > 100 µM

Question: And the TGI [45]?
Answer: 83 µM

Question: And the TGI [46]?
Answer: > 100 µM

Question: What about the TGI [47] of the same compound?
Answer: 24 µM

Question: And the TGI [48]?
Answer: > 100 µM

Question: And the TGI [49]?
Answer: 56.7 µM

Question: What about the TGI [50] of the same compound?
Answer: 60.3 µM

Question: And the TGI [51]?
Answer: 37.4 µM

Question: And the TGI [52]?
Answer: > 100 µM

Question: What about the TGI [53] of the same compound?
Answer: > 100 µM

Question: And the TGI [54]?
Answer: 59.3 µM

Question: And the TGI [55]?
Answer: 47.8 µM

Question: What about the TGI [56] of the same compound?
Answer: 46.5 µM

Question: And the TGI [57]?
Answer: 34.8 µM

Question: And the TGI [58]?
Answer: 34 µM

Question: What about the TGI [59] of the same compound?
Answer: 42.2 µM

Question: What does the source list for `O=C(c1cccs1)N(Cc1cccnc1)C(=S)N(Cc1cccnc1)C(=O)c1cccs1`?
Answer: TGI [1]: 34.3 µM; TGI [2]: 97.4 µM; TGI [3]: > 100 µM; TGI [4]: > 100 µM; TGI [5]: > 100 µM; TGI [6]: > 100 µM; TGI [7]: > 100 µM; TGI [8]: > 100 µM; TGI [9]: > 100 µM; TGI [10]: > 100 µM; TGI [11]: > 100 µM; TGI [12]: > 100 µM; TGI [13]: > 100 µM; TGI [14]: > 100 µM; TGI [15]: > 100 µM; TGI [16]: > 100 µM; TGI [17]: > 100 µM; TGI [18]: > 100 µM; TGI [20]: > 100 µM; TGI [21]: > 100 µM; TGI [22]: > 100 µM; TGI [23]: > 100 µM; TGI [24]: > 100 µM; TGI [25]: > 100 µM; TGI [26]: > 100 µM; TGI [27]: > 100 µM; TGI [28]: > 100 µM; TGI [29]: > 100 µM; TGI [30]: > 100 µM; TGI [31]: > 100 µM; TGI [32]: > 100 µM; TGI [33]: > 100 µM; TGI [34]: > 100 µM; TGI [35]: > 100 µM; TGI [36]: > 100 µM; TGI [37]: > 100 µM; TGI [38]: > 100 µM; TGI [39]: > 100 µM; TGI [41]: > 100 µM; TGI [42]: > 100 µM; TGI [43]: > 100 µM; TGI [44]: 88.7 µM; TGI [45]: > 100 µM; TGI [46]: > 100 µM; TGI [47]: > 100 µM; TGI [48]: > 100 µM; TGI [49]: > 100 µM; TGI [50]: > 100 µM; TGI [51]: > 100 µM; TGI [52]: > 100 µM; TGI [53]: > 100 µM; TGI [54]: > 100 µM; TGI [55]: > 100 µM; TGI [56]: > 100 µM; TGI [57]: > 100 µM; TGI [58]: > 100 µM; TGI [59]: > 100 µM

Question: Which results are given for `COC(=O)/C=C1/OC(c2ccc(C)cc2)=C(Cl)C1=O`?
Answer: TGI [1]: 27 µM; TGI [2]: 33.6 µM; TGI [3]: 40.4 µM; TGI [4]: 30.4 µM; TGI [5]: 42.2 µM; TGI [6]: 29.7 µM; TGI [7]: 11.7 µM; TGI [8]: 23.7 µM; TGI [9]: 32.7 µM; TGI [10]: 42.3 µM; TGI [11]: 34.4 µM; TGI [12]: 24.7 µM; TGI [13]: 26.4 µM; TGI [14]: 10.2 µM; TGI [15]: 38.8 µM; TGI [16]: 34.1 µM; TGI [17]: 68.9 µM; TGI [18]: 32.6 µM; TGI [19]: 34.4 µM; TGI [20]: 19 µM; TGI [21]: 30.7 µM; TGI [22]: 23.7 µM; TGI [23]: 35.5 µM; TGI [24]: 33.5 µM; TGI [25]: 34.9 µM; TGI [26]: 33.6 µM; TGI [27]: 34.9 µM; TGI [28]: 33.1 µM; TGI [29]: 13.8 µM; TGI [30]: 47.1 µM; TGI [31]: 36.9 µM; TGI [32]: 51 µM; TGI [33]: 23.2 µM; TGI [34]: 56.1 µM; TGI [35]: 27.1 µM; TGI [36]: 27.5 µM; TGI [37]: 35 µM; TGI [38]: 41.3 µM; TGI [39]: 27.7 µM; TGI [40]: 14.4 µM; TGI [41]: 26.6 µM; TGI [42]: 41.6 µM; TGI [43]: 41.7 µM; TGI [44]: 35.5 µM; TGI [45]: 34.3 µM; TGI [46]: 30.9 µM; TGI [47]: 27.9 µM; TGI [48]: 59.3 µM; TGI [49]: 38 µM; TGI [50]: 52.2 µM; TGI [51]: 35.5 µM; TGI [52]: 9.06 µM; TGI [53]: 28.9 µM; TGI [54]: 52.1 µM; TGI [55]: 34.9 µM; TGI [56]: 24.6 µM; TGI [57]: 43.1 µM; TGI [58]: 36.9 µM; TGI [59]: 31.6 µM
